Experimental data: patent publication US20180111913A1, “SUBSTITUTED BENZOFURAN DERIVATIVES AS NOVEL ANTIMYCOBACTERIAL AGENTS” (priority 2015, published 2018)
In brackets after ≈: the same amount, converted by molar mass. Where two headings read alike, the source gives them in different places.

How the values were obtained:
[1] = test system: Mtb strain mc^27000; test: microbe, parasite or virus in culture; type: cell-based, Mycobacterium tuberculosis; settings: for inhibition at 20 µM / inhibition at 40 µM: read-out: percentage inhibition observed (incomplete inhibition)
[2] = target: Mtb Pks13-TE domain (wild-type) (Mycobacterium tuberculosis, UniProt I6X8D2); test: biochemical; type: biochemical; settings: for loss / decrease in inhibitory activity compared to compound I: relative to compound I; for loss of inhibitory activity / higher IC50 against Pks13-TE compared to the test compound: relative to test compound
[3] = Mycobacterium tuberculosis, Mtb mc^27000, liquid medium, 96-well plates, read-out: MIC
[4] = Pks13-TE, 20 μM 4-MUH, read-out: IC50
[5] = Mtb Pks13-TE domain, mean ± s.d. of triplicates, read-out: IC50
[6] = Mtb mc^27000, liquid medium, 96-well plates, read-out: MIC
[7] = […], mean ± s.d. of triplicates, NI: no inhibition, read-out: MIC

Sequence of Mtb Pks13-TE domain (wild-type) (I6X8D2 1451-1733): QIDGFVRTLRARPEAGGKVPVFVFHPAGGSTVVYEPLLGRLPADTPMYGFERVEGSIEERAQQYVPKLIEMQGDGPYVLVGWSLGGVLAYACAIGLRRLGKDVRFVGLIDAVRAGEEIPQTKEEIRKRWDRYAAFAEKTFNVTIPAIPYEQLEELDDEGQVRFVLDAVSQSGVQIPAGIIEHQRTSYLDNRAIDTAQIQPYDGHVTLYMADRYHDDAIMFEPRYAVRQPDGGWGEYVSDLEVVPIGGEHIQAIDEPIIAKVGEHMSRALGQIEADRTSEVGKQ

SMILES	MIC [1, 3] [µM]	IC50 [2, 4] [µM]	further results
CCOC(=O)c1c(-c2ccccc2)oc2ccc(O)c(Cc3ccccc3)c12 [compound 10]	40 (≈ 14.9 µg/mL)	11.9	–
CCOC(=O)c1c(-c2ccccc2)oc2ccc(O)c(C)c12 [compound 12]	20 (≈ 5.93 µg/mL)	> 20	–
O=C(O)c1c(-c2ccccc2)oc2ccc(O)c(CN3CCCCC3)c12 [compound 14]	–	–	whole-cell activity (Mtb growth inhibition), in words ([1]; Mtb mc^27000): completely abolished; IC50 [2, 5]: 6.6 ± 0.7 µM; loss / decrease in inhibitory activity compared to compound I [2]: ~20 fold
CCOC(=O)c1c(-c2ccccc2)oc2ccc(O)c(CC3CCCCC3)c12 [compound 16]	–	19.6	MIC [1, 6]: 5.2 µM (≈ 1.97 µg/mL); MIC [1, 7]: 5.2 µM (≈ 1.97 µg/mL); IC50 [2, 5]: 19.6 ± 1.4 µM; loss of inhibitory activity / higher IC50 against Pks13-TE compared to the test compound [2]: > 70 fold
CCNC(=O)c1c(-c2ccccc2)oc2ccc(O)c(CN3CCCCC3)c12 [compound 18]	14 (≈ 5.3 µg/mL)	0.36	–
CCOC(=O)c1c(-c2ccccc2)oc2ccc(OC)c(Cc3ccccc3)c12 [compound 19]	50 (≈ 19.3 µg/mL)	50	–
CNC(=O)c1c(-c2ccccc2)oc2ccc(OC)c(C(O)c3ccccc3)c12 (centres unmarked) [compound 20]	50 (≈ 19.4 µg/mL)	50	–
CCOC(=O)c1c(-c2ccccc2)oc2ccc(OC)c(CN3CCCCC3)c12 [compound 23]	35.8 (≈ 14.1 µg/mL)	–	IC50 [2, 5]: 35.8 ± 2.2 µM; IC50 ([2]; Pks13-TE, read-out: IC50 (unit inferred)): ~36 µM; loss / decrease in inhibitory activity compared to compound I [2]: > 100 fold
CCOC(=O)c1c(-c2ccccc2)oc2cccc(CN3CCCCC3)c12 [compound 24]	–	2	MIC [1, 6]: 16 µM (≈ 5.82 µg/mL); MIC [1, 7]: 16 µM (≈ 5.82 µg/mL); IC50 [2, 5]: 2 ± 0.1 µM; loss / decrease in inhibitory activity compared to compound I [2]: ~7 fold
CCOC(=O)c1c(-c2ccc(F)cc2)oc2ccc(O)c(CN3CCCCC3)c12 [compound 25]	–	0.35	MIC [1, 6]: 1.5 µM (≈ 0.596 µg/mL)
CCOC(=O)c1c(-c2ccccc2)oc2cc([N+](=O)[O-])c(O)c(CN3CCCCC3)c12 [compound 26]	5.4 (≈ 2.29 µg/mL)	1.3	–
CCOC(=O)c1c(-c2ccccc2)oc2cc(NC(C)=O)c(O)c(CN3CCCCC3)c12 [compound 28]	–	3.1	MIC [1, 6]: 20 µM (≈ 8.73 µg/mL)
CNC(=O)c1c(-c2ccccc2)oc2cccc(CN3CCCCC3)c12 [compound 33]	> 50	45	–
CCOC(=O)c1c(-c2ccccc2)oc2cc(CN3CCCCC3)cc(O)c12 [compound 36]	40 (≈ 15.2 µg/mL)	–	–
CCOC(=O)c1c(-c2ccccc2)oc2cc(OC)cc(CN3CCCCC3)c12 [compound 37]	–	29	MIC [1, 6]: 7.3 µM (≈ 2.87 µg/mL)
O=C(c1c(-c2ccccc2)oc2ccc(O)c(CN3CCCCC3)c12)N1CCCCC1 [compound 43]	–	0.32	MIC [1, 6]: >10 µM
O=C(c1c(-c2ccccc2)oc2ccc(O)c(CN3CCCCC3)c12)N1CCOCC1 [compound 46]	> 20	0.34	–
CCOC(=O)c1c(-c2cccc(OC)c2)oc2ccc(O)c(CN3CCCCC3)c12 [compound 48]	1.3 (≈ 0.532 µg/mL)	0.36	–
CCOC(=O)c1c(-c2ccc(F)cc2)oc2cc(O)cc(CN3CCCCC3)c12 [compound 49]	–	0.4	MIC [1, 6]: >10 µM
CCOC(=O)c1c(-c2cccc(O)c2)oc2ccc(O)c(CN3CCCCC3)c12 [compound 50]	–	0.23	MIC [1, 6]: 0.23 µM (≈ 0.091 µg/mL)
CCOC(=O)c1c(-c2ccc(F)cc2)oc2cc(O)cc(CN3CCCCC3)c12 [compound 51]	–	0.8	MIC [1, 6]: >30 µM
CC(C)(C)OC(=O)NC1CCN(C(=O)c2c(-c3ccccc3)oc3ccc(O)c(CN4CCCCC4)c23)CC1 [compound 53]	–	0.63	MIC [1, 6]: 6.6 µM (≈ 3.52 µg/mL)

SMILES	MIC [1, 3] [µM]	IC50 [2, 4] [µM]	further results
NC1CCN(C(=O)c2c(-c3ccccc3)oc3ccc(O)c(CN4CCCCC4)c23)CC1 [compound 54]	20 (≈ 8.67 µg/mL)	5.3	–
CCOC(=O)c1c(-c2ccccc2)oc2cc(O)cc(CCN)c12 [compound 55]	–	4	MIC [1, 6]: >20 µM
CNC(=O)c1c(-c2cccc(OC)c2)oc2ccc(O)c(CN3CCCCC3)c12 [compound 56]	–	0.4	MIC [1, 6]: 9.0 µM (≈ 3.55 µg/mL)
CNC(=O)c1c(-c2cccc(O)c2)oc2ccc(O)c(CN3CCCCC3)c12 [compound 57]	0.44 (≈ 0.167 µg/mL)	0.27	–
CCOC(=O)c1c(-c2ccc(O)c(F)c2)oc2ccc(O)c(CN3CCCCC3)c12 [compound 59]	0.3 (≈ 0.124 µg/mL)	0.29	–
CCOC(=O)c1c(-c2ccc(C(N)=O)cc2)oc2ccc(O)c(CN3CCCCC3)c12 [compound 60]	3.5 (≈ 1.48 µg/mL)	0.3	–
CNC(=O)c1c(-c2ccc(NC(C)=O)cc2)oc2ccc(O)c(CN3CCCCC3)c12 [compound 66]	> 20	–	–
CC(C)N1Cc2cc(O)cc3oc(-c4ccccc4)c(c23)C1=O [compound 71]	> 20	9	–
CCOC(=O)c1c(-c2ccc(F)cc2)oc2cc(O)cc(CCNC(C)CO)c12 (centres unmarked) [compound 77]	3.3 (≈ 1.32 µg/mL)	6	–
CNC(=O)c1c(-c2ccccc2)oc2cc(O)cc(CS(=O)(=O)NC)c12 [compound 83]	> 20	–	–
CNC(=O)c1c(-c2ccncc2)oc2cc(O)cc(CN3CCCCC3)c12 [compound 84]	6.1 (≈ 2.23 µg/mL)	–	–
CNC(=O)c1c(-c2ccnc(O)c2)oc2cc(O)cc(CN3CCCCC3)c12 [compound 85]	> 10	–	–
CNC(=O)c1c(-c2ccnc(OC)c2)oc2cc(OC)cc(CN3CCCCC3)c12 [compound 86]	> 20	> 20	–
CNC(=O)c1c(-c2ccnc(OC)c2)oc2cc(O)cc(CN3CCCCC3)c12 [compound 87]	3.3 (≈ 1.31 µg/mL)	–	–
CNC(=O)c1c(-c2cccc(O)c2)oc2cc(O)cc(CN3CCCCC3)c12 [compound 89]	1.2 (≈ 0.457 µg/mL)	9	–
CNC(=O)c1c(-c2ccccc2)oc2cc(OCC(N)=O)cc(CN3CCCCC3)c12 [compound 90]	–	–	inhibition at 20 µM ([1]; Mycobacterium tuberculosis): 13%; inhibition at 40 µM ([2]; at 40 μM, read-out: percentage inhibition observed (IC50 column, incomplete inhibition)): 31%
CNC(=O)c1c(-c2ccccc2)oc2cc(OCCN)cc(CN3CCCCC3)c12 [compound 91]	–	10	inhibition at 40 µM ([1]; Mycobacterium tuberculosis): 34%
CNC(=O)c1c(-c2ccccc2)oc2cc(OCC(=O)OC)cc(CN3CCCCC3)c12 [compound 93]	–	10	inhibition at 40 µM ([1]; Mycobacterium tuberculosis): 16%
CNC(=O)c1c(-c2ccccc2)oc2cc(O)cc(CN3CCOCC3)c12 [compound 94]	> 20	–	–
CNC(=O)c1c(-c2ccccc2)oc2cc(O)cc(CNC3CCOCC3)c12 [compound 95]	8 (≈ 3.04 µg/mL)	–	–
CNC(=O)c1c(-c2ccccc2)oc2cc(O)cc(CNCCO)c12 [compound 96]	9 (≈ 3.06 µg/mL)	–	–
CCOC(=O)c1c(-c2ccccc2)oc2ccc(O)c(CN3CCC(N4CCCCC4)CC3)c12 [compound 98]	–	> 20	inhibition at 20 µM ([1]; Mycobacterium tuberculosis): 40%

SMILES	MIC [1, 3] [µM]	IC50 [2, 4] [µM]	further results
OCc1c(-c2ccccc2)oc2ccc(O)c(CN3CCC(N4CCCCC4)CC3)c12 [compound 99]	–	–	inhibition at 20 µM ([1]; Mycobacterium tuberculosis): 28%; IC50 ([2]; Pks13-TE, read-out: IC50 (μM), given as NB / NI): > 20 µM
O=S(=O)(Nc1ccc2oc(-c3ccccc3)cc2c1CN1CCC(N2CCCCC2)CC1)C(F)(F)F [compound 100]	–	> 40	inhibition at 20 µM ([1]; Mycobacterium tuberculosis): 6%
CNC(=O)c1c(-c2ccccc2)oc2ccc(O)c(CCN3CCCC3)c12 [compound 101]	3.3 (≈ 1.2 µg/mL)	–	–
COC(=O)c1c(-c2ccccc2)oc2ccc(O)c(CCCN3CCCC3)c12 [compound 104]	1.8 (≈ 0.683 µg/mL)	2	–
CNC(=O)c1c(-c2ccccc2)oc2ccc(O)c(CCCN3CCCC3)c12 [compound 105]	5 (≈ 1.89 µg/mL)	5	–
CCOC(=O)c1c(-c2ccccc2)oc2ccc(O)c(CCO)c12 [compound 106]	> 20	–	–
CCOC(=O)c1c(-c2ccccc2)oc2ccc(O)c(CCCO)c12 [compound 107]	> 20	–	–
COC(=O)n1c(-c2ccccc2)c(Br)c2cccc(CN3CCCCC3)c21 [compound 108]	–	2	inhibition at 20 µM ([1]; Mycobacterium tuberculosis): 26%
CCOC(=O)c1c(-c2ccccc2)oc2ccc(O)c(CN(C)C)c12 [compound 109]	–	1.57 ± 0.15	higher MIC compared to the test compound [1]: 3 fold; MIC ([1]; Mtb mc^27000, liquid medium, 96-well plates): 7.3 ± 0.3 µM (≈ 2.48 µg/mL); MIC ([1]; […], mean ± s.d. of triplicates, NI: no inhibition): 7.3 ± 0.3 µM (≈ 2.48 µg/mL); IC50 [2, 5]: 1.57 ± 0.15 µM; loss of inhibitory activity / higher IC50 against Pks13-TE compared to the test compound [2]: > 6 fold
Oc1ccc2nc(-c3ccccc3)[nH]c2c1CN1CCCC1 [compound 110]	22 (≈ 6.45 µg/mL)	6.8	–
CNC(=O)c1c(-c2cccnc2)oc2ccc(OC)c(CN3CCCCC3)c12 [compound 112]	> 40	35.8	–
CCOC(=O)c1c(-c2ccccc2)oc2ccc(O)c(CN3CCC(O)CC3)c12 [compound 117]	5.6 (≈ 2.21 µg/mL)	0.18	–
CNC(=O)c1c(-c2ccc(O)cc2)oc2ccc(O)c(CN3CCC(O)CC3)c12 [compound 120]	4.2 (≈ 1.67 µg/mL)	0.5	–
CCOC(=O)c1c(-c2ccccc2)oc2ccc(O)c(CC(=O)N3CCCC3)c12 [compound 130]	–	–	MIC [1, 6]: 4.1 µM (≈ 1.61 µg/mL)
CCOC(=O)c1c(-c2ccccc2)oc2ccc(O)c(CC(=O)NC3CCC3)c12 [compound 131]	–	–	MIC [1, 6]: 7.2 µM (≈ 2.83 µg/mL)
CCOC(=O)c1c(-c2ccccc2)oc2ccc(O)c(CCN3CCC(C)CC3)c12 [compound 149]	2.3 (≈ 0.937 µg/mL)	–	–
CNC(=O)c1c(-c2ccccc2)oc2ccc(O)c(CCCNCc3nonc3C)c12 [compound 195]	–	–	MIC [1, 6]: >40 µM
CC(C)NC(=O)c1c(-c2ccc(O)cc2)oc2ccc(O)c(CCCN3CCC3)c12 [compound 214]	–	–	MIC [1, 6]: <0.08 µM
CCOC(=O)c1c(-c2ccccc2)oc2ccc(O)c(CCCCN3CCC3)c12 [compound 215]	–	–	MIC [1, 6]: <0.08 µM
CCOC(=O)c1c(-c2ccccc2)oc2ccc(O)c(CCCNCC(F)F)c12 [compound 218]	–	–	MIC [1, 6]: 2.8 µM (≈ 1.13 µg/mL)
